Data reported in US11903990B2, “Compositions and methods for treating and removing seborrheic keratoses” (priority 2017, dated 2024).

System: seborrheic keratoses (SKs)
Experiment: Formulary and performance observations on ingredients added to the SK treatment compositions
Assay type: in vivo, human
Conditions: for performance on addition to the BWE composition: added antioxidant, with BWE; for improvement of the treatment of seborrheic keratosis: dietary antioxidant
From the text: A number of formulary and performance observations were made in the various aforementioned pilot and case studies as well as additional variants thereof not reported here. […] Additionally, the addition of keratolytic agents and emollients appeared to help keep the composition from drying and improved the penetration of the composition into the SK.

| Structure (SMILES) | performance on addition to the BWE composition | improvement of the treatment of seborrheic keratosis |
| --- | --- | --- |
| CC(=O)N[C@@H](CS)C(=O)O [N-acetyl cysteine] | no visible improvement | not found to improve |
| O=C(O)/C=C/c1ccc(O)c(O)c1 [caffeic acid] | no visible improvement | not found to improve |
| CC(C)=CCC/C(C)=C/C=C/C(C)=C/C=C/C(C)=C/C=C/C=C(C)/C=C/C=C(C)/C=C/C=C(\C)CCC=C(C)C [lycopene] | no visible improvement | not found to improve |
| Oc1ccc(C=Cc2cc(O)cc(O)c2)cc1 [resveratrol] | no visible improvement | not found to improve |
